ChEMBL document CHEMBL4364263, “Synthesis and biological evaluation of 2,4,5-trisubstituted thiazoles as antituberculosis agents effective against drug-resistant tuberculosis” (Eur J Med Chem, 2019)
≈ marks a conversion by molar mass, not a printed value. Calls of active or inactive are those of the source. No cut-off for these calls is given here.

Columns and labels:
[1] = tested on: Mycobacterium tuberculosis; assay: Antitubercular activity against replicating Mycobacterium tuberculosis H37Rv assessed as growth inhibition measured after 7 days incubation by microplate alamar blue assay; assay type: functional; conditions: 168 h
[2] = tested on: Mycobacterium tuberculosis; assay: Antitubercular activity against Mycobacterium tuberculosis H37Rv ATCC 27294 assessed as bacterial growth inhibition incubated for 5 days by standard microdilution method; assay type: functional; conditions: H37Rv ATCC 27294, 120 h
[3] = tested on: Mycobacterium tuberculosis; assay: Antimycobacterial activity against dormant stage of Mycobacterium tuberculosis H37Ra ATCC 25177 assessed as growth inhibition at 10 uM incubated for 12 days by XRMA method relative to control; assay type: functional; conditions: H37Ra ATCC 25177, 288 h
[4] = tested on: Escherichia coli; assay: Antibacterial activity against Escherichia coli ATCC 25922 assessed as growth inhibition incubated for 18 to 24 hrs by broth microdilution based antibiotic susceptibility testing method; assay type: functional
[5] = tested on: CHO-K1; assay: Cytotoxicity against CHOK1 cells assessed as reduction in cell viability incubated for 24 hrs by MTT assay; assay type: cell-based; conditions: Cricetulus griseus, CHO-K1, 24 h
[6] = tested on: MCF7; assay: Cytotoxicity against human MCF7 cells assessed as cell viability at 10 uM incubated for 24 hrs by MTT assay; assay type: cell-based; conditions: mcf7, 24 h
[7] = tested on: B16-F10; assay: Cytotoxicity against mouse B16F10 cells assessed as cell viability at 10 uM incubated for 24 hrs by MTT assay; assay type: cell-based; conditions: b16-f10, 24 h
[8] = tested on: Klebsiella pneumoniae; assay: Antibacterial activity against Klebsiella pneumoniae BAA-1705 assessed as growth inhibition incubated for 18 to 24 hrs by broth microdilution based antibiotic susceptibility testing method; assay type: functional; conditions: ATCC BAA-1705
[9] = tested on: Pseudomonas aeruginosa; assay: Antibacterial activity against Pseudomonas aeruginosa ATCC 27853 assessed as growth inhibition incubated for 18 to 24 hrs by broth microdilution based antibiotic susceptibility testing method; assay type: functional
[10] = tested on: Staphylococcus aureus; assay: Antibacterial activity against Staphylococcus aureus ATCC 29213 assessed as growth inhibition incubated for 18 to 24 hrs by broth microdilution based antibiotic susceptibility testing method; assay type: functional
[11] = Selectivity index, ratio of IC50 for CHOK1 cells to MIC for Mycobacterium tuberculosis H37Rv; assay type: toxicity; conditions: hamster, CHO-K1 cells; read-out: Selectivity Index
[12] = tested on: Mycolicibacterium fortuitum; assay: Antimycobacterial activity against Mycobacterium fortuitum assessed as growth inhibition; assay type: functional, organism-based
[13] = tested on: Mycobacteroides chelonae; assay: Antimycobacterial activity against Mycobacterium chelonae assessed as growth inhibition; assay type: functional, organism-based
[14] = tested on: Mycobacteroides abscessus; assay: Antimycobacterial activity against Mycobacterium abscessus assessed as growth inhibition; assay type: functional, organism-based
[15] = tested on: Acinetobacter baumannii; assay: Antibacterial activity against Acinetobacter baumannii BAA-1605 assessed as growth inhibition incubated for 18 to 24 hrs by broth microdilution based antibiotic susceptibility testing method; assay type: functional
[16] = tested on: CHO-K1; assay: Cytotoxicity against CHOK1 cells assessed as cell viability at 8 ug/ml incubated for 24 hrs by MTT assay; assay type: cell-based, Cricetulus griseus; conditions: chinese hamster, cho-k1, 24 h

SMILES | MIC [1] | inhibition at 10 µM [3] | further results
CCOC(=O)c1nc(C2CCCCC2)sc1-c1ccc2c(c1)NC(=O)CO2 | 19.3 µg/mL (≈ 49.9 µM) |  | 
COc1ncnc(Cn2cc(C(=O)NCCO)c3ncc(C)cc32)c1C [TBA-7371] |  |  | MIC [2]: 0.78 to 3.12 µM (≈ 0.277 to 1.11 µg/mL)
CC(C)c1nc(C(=O)N[C@@H](C)c2ccccc2)c(-c2ccc3c(c2)OCO3)s1 | 4.9 µg/mL (≈ 12.4 µM) | 90.8% | 
CCOC(=O)c1nc(C)sc1-c1ccc2c(c1)OCO2 | 13.6 µg/mL (≈ 46.7 µM) |  | 
CC(C)c1nc(C(=O)NC(C)c2ccc(Br)cc2)c(-c2ccc(C#N)cc2)s1 (stereo unspecified) | > 34 µg/mL |  | 
CC(C)c1nc(C(=O)NCc2cccnc2)c(-c2ccc(C#N)cc2)s1 | > 34 µg/mL |  | 
COc1ccc(CCNC(=O)c2nc(C(C)C)sc2-c2ccc3c(c2)OCO3)cc1OC | 5.6 µg/mL (≈ 12.3 µM) | 84.9% | 
CC(C)c1nc(C(=O)N[C@H](C)c2ccccc2)c(-c2ccc3c(c2)OCO3)s1 | 4.9 µg/mL (≈ 12.4 µM) | 90.9% | 
CCOC(=O)c1nc(C(C)C)sc1-c1cnc2ccccc2c1 | 4 µg/mL (≈ 12.3 µM) | 80.5% | MIC [4]: > 50 µM; IC50 [5]: > 50 µg/mL; Activity [6]: Non-Toxic; Activity [7]: Non-Toxic; MIC [8]: > 50 µM; MIC [9]: > 50 µM; MIC [10]: > 50 µM; selectivity ratio [11]: > 12.5; inhibition [12]: inactive; inhibition [13]: inactive; inhibition [14]: inactive
CCOC(=O)c1nc(C(C)C)sc1-c1ccc2c(c1)NC(=O)CO2 | > 34 µg/mL |  | 
N#Cc1ccc(-c2sc(C3CCCCC3)nc2C(=O)NCc2cccnc2)cc1 | > 34 µg/mL |  | 
COc1ccc(CCNC(=O)c2nc(C)sc2-c2ccc(C#N)cc2)cc1OC | > 34 µg/mL | 67.3% | 
CC(C)c1nc(C(=O)NCc2ccc(Cl)cc2)c(-c2ccc(C#N)cc2)s1 | > 34 µg/mL |  | 
C[C@H]1COc2c(N3CCN(C)CC3)c(F)cc3c(=O)c(C(=O)O)cn1c23 [LEVOFLOXACIN] |  |  | MIC [4]: < 30 µM; MIC [15]: 8 µM (≈ 2.89 µg/mL)
C[C@@H](NC(=O)c1nc(C2CCCCC2)sc1-c1ccc(C#N)cc1)c1ccccc1 | 10.3 µg/mL (≈ 24.8 µM) | 57.8% | 
Cc1nc(C(=O)N[C@H](C)c2ccccc2)c(-c2ccc(C#N)cc2)s1 | > 34 µg/mL | 74% | 
CC(C)c1nc(C(=O)NCc2ccc(F)cc2)c(-c2ccc(C#N)cc2)s1 | > 34 µg/mL |  | 
COc1ccc(CCNC(=O)c2nc(C(C)C)sc2-c2ccc(C#N)cc2)cc1OC | 5.4 µg/mL (≈ 12.4 µM) | 89.4% | 
CC(C)c1nc(C(=O)N[C@H](C)c2ccccc2)c(-c2ccc(C#N)cc2)s1 | 9.3 µg/mL (≈ 24.8 µM) | 86.7% | 
CC(C)c1nc(C(=O)NCc2cccnc2)c(-c2ccc3c(c2)OCO3)s1 | 9.5 µg/mL (≈ 24.9 µM) | 87.1% | 
CC(C)c1nc(C(=O)NCc2cc(Cl)cc(Cl)c2)c(-c2ccc(C#N)cc2)s1 | > 34 µg/mL |  | 
N#Cc1ccc(-c2sc(C3CCCCC3)nc2C(=O)NCc2ccc3c(c2)OCO3)cc1 | > 34 µg/mL |  | 
CC(C)c1nc(C(=O)NCc2ccc3c(c2)OCO3)c(-c2ccc(C#N)cc2)s1 | > 34 µg/mL |  | 
CCOC(=O)c1nc(C2CCCCC2)sc1-c1cccc(C#N)c1 | 4.2 µg/mL (≈ 12.3 µM) | 90.3% | MIC [4]: > 50 µM; IC50 [5]: > 50 µg/mL; Activity [6]: Non-Toxic; Activity [7]: Non-Toxic; MIC [8]: > 50 µM; MIC [9]: > 50 µM; MIC [10]: 50 µM (≈ 17 µg/mL); selectivity ratio [11]: > 11.9; inhibition [12]: inactive; inhibition [13]: inactive; inhibition [14]: inactive
Cc1ccc(C(C)NC(=O)c2nc(C(C)C)sc2-c2ccc(C#N)cc2)cc1 (stereo unspecified) | > 34 µg/mL |  | 
CC(C)c1nc(C(=O)N2CCOCC2)c(-c2ccc3c(c2)OCO3)s1 | > 34 µg/mL |  | 
Cc1nc(C(=O)N[C@@H](C)c2ccccc2)c(-c2ccc(C#N)cc2)s1 | > 34 µg/mL | 73.5% | 

SMILES | MIC [1] | inhibition at 10 µM [3] | further results
CCOC(=O)c1nc(C2CCCCC2)sc1-c1ccc2nccnc2c1 | 4.5 µg/mL (≈ 12.2 µM) | 93.3% | 
CC(C)c1nc(C(=O)N[C@@H](C)c2ccccc2)c(-c2ccc(C#N)cc2)s1 | 18.7 µg/mL (≈ 49.8 µM) | 73.2% | 
CCOC(=O)c1nc(C2CCCCC2)sc1-c1ccc(C#N)cc1 | 2.1 µg/mL (≈ 6.17 µM) | 90.5% | MIC [4]: > 50 µM; Activity [16]: Non-Toxic; IC50 [5]: 75.2 µg/mL (≈ 221 µM); Activity [6]: Non-Toxic; Activity [7]: Non-Toxic; MIC [8]: > 50 µM; MIC [9]: > 50 µM; MIC [10]: 50 µM (≈ 17 µg/mL); selectivity ratio [11]: 35.8; inhibition [12]: inactive; inhibition [13]: inactive; inhibition [14]: inactive
CCOC(=O)c1nc(C(C)C)sc1-c1ccc2c(c1)OCO2 | 7.9 µg/mL (≈ 24.7 µM) | 90.1% | 
CC(C)c1nc(C(=O)N2CCOCC2)c(-c2ccc(C#N)cc2)s1 | > 34 µg/mL |  | 
CCOC(=O)c1nc(C(C)C)sc1-c1ccccc1C#N | 15 µg/mL (≈ 49.9 µM) |  | 
CCOC(=O)c1nc(C(C)C)sc1-c1ccc(C#N)cc1 | 1.8 µg/mL (≈ 5.99 µM) | 82.7% | MIC [4]: > 50 µM; IC50 [5]: 40.5 µg/mL (≈ 135 µM); Activity [6]: Non-Toxic; Activity [7]: Non-Toxic; MIC [8]: > 50 µM; MIC [9]: > 50 µM; MIC [10]: > 50 µM; selectivity ratio [11]: 22.4; inhibition [12]: inactive; inhibition [13]: inactive; inhibition [14]: inactive
CC(C)c1nc(C(=O)N[C@H](C)c2cccc3ccccc23)c(-c2ccc(C#N)cc2)s1 | > 34 µg/mL |  | 
CC(C)c1nc(C(=O)NCc2ccc(Cl)c(F)c2)c(-c2ccc(C#N)cc2)s1 | > 34 µg/mL |  | 
CC(C)c1nc(C(=O)NCc2ccccc2)c(-c2ccc(C#N)cc2)s1 | > 34 µg/mL |  | 
Cc1nc(C(=O)NCc2cccnc2)c(-c2ccc(C#N)cc2)s1 | > 34 µg/mL |  | 
COc1ccc(CCNC(=O)c2nc(C3CCCCC3)sc2-c2ccc(C#N)cc2)cc1OC | 5.9 µg/mL (≈ 12.4 µM) | 71.6% | 
CCOC(=O)c1nc(C(C)C)sc1-c1ccc2nccnc2c1 | 8.1 µg/mL (≈ 24.7 µM) | 19.5% | 
CCOC(=O)c1nc(C2CCCCC2)sc1-c1ccc2c(c1)OCO2 | 8.9 µg/mL (≈ 24.8 µM) | 92% | 
C[C@H](NC(=O)c1nc(C2CCCCC2)sc1-c1ccc(C#N)cc1)c1ccccc1 | 20.7 µg/mL (≈ 49.8 µM) |  | 
CCOC(=O)c1nc(C2CCCCC2)sc1-c1cnc2ccccc2c1 | 4.5 µg/mL (≈ 12.3 µM) | 86.5% | 
CCOC(=O)c1nc(C2CCCCC2)sc1-c1ccccc1C#N | 4.2 µg/mL (≈ 12.3 µM) | 91.7% | MIC [4]: > 50 µM; IC50 [5]: > 50 µg/mL; Activity [6]: Non-Toxic; Activity [7]: Non-Toxic; MIC [8]: > 50 µM; MIC [9]: > 50 µM; MIC [10]: 50 µM (≈ 17 µg/mL); selectivity ratio [11]: > 11.9; inhibition [12]: inactive; inhibition [13]: inactive; inhibition [14]: inactive
CO[C@@]12[C@H](COC(N)=O)C3=C(C(=O)C(C)=C(N)C3=O)N1C[C@@H]1N[C@@H]12 [MITOMYCIN] |  |  | IC50 [5]: 13.1 µg/mL (≈ 39.2 µM)
Cc1nc(C(=O)NCc2ccc3c(c2)OCO3)c(-c2ccc(C#N)cc2)s1 | > 34 µg/mL |  | 
N#Cc1ccc(-c2sc(C3CCCCC3)nc2C(=O)N2CCOCC2)cc1 | > 34 µg/mL |  | 
CO[C@H]1/C=C/O[C@@]2(C)Oc3c(C)c(O)c4c(O)c(c(/C=N/N5CCN(C)CC5)c(O)c4c3C2=O)NC(=O)/C(C)=C\C=C\[C@H](C)[C@H](O)[C@@H](C)[C@@H](O)[C@@H](C)[C@H](OC(C)=O)[C@@H]1C [RIFAMPIN] | 0.2 µg/mL (≈ 0.243 µM) |  | 
CCOC(=O)c1nc(C)sc1-c1ccc(C#N)cc1 | 14.5 µg/mL (≈ 53.2 µM) | 20.2% | 
CC(C)c1nc(C(=O)NCc2ccc3c(c2)OCO3)c(-c2ccc3c(c2)OCO3)s1 | 10.6 µg/mL (≈ 25 µM) | 82.2% | 
CCOC(=O)c1nc(C2CCCCC2)sc1-c1cccc2cnccc12 | 4.5 µg/mL (≈ 12.3 µM) | 96% | 
CCOC(=O)c1nc(C(C)C)sc1-c1cccc(C#N)c1 | 15 to 17 µg/mL (≈ 49.9 to 56.6 µM) |  | 
Cc1nc(C(=O)N2CCOCC2)c(-c2ccc(C#N)cc2)s1 | > 34 µg/mL |  | 
CCOC(=O)c1nc(C(C)C)sc1-c1cccc2cnccc12 | 16.3 µg/mL (≈ 49.9 µM) |  | 
